Experimental data reported in US9221816B2, “2-oxo-2,3-dihydro-indoles for the treatment of CNS disorders” (Hoffmann-La Roche Inc., priority 2012, dated 2015).

Test system: L-687,414-induced hyperlocomotion
Assay: L-687,414-induced hyperlocomotion (Digiscan locomotor activity)
Assay type: in vivo, mouse
Conditions: mice; for Inhibition, ip: dose ip 30, at the same time as s.c. 50 mg/kg L-687,414, % inhibition of horizontal activity; for ID50 po: p.o. 15 min before s.c. 50 mg/kg L-687,414, dose producing 50% inhibition of hyperlocomotion
Description: The authors described that hyperlocomotion induced by L-687,414 was inhibited by a series of known antipsychotic drugs. […] These findings predict antipsychotic activity for the present compounds, making them useful for the treatment of schizophrenia and other disorders as described above.
The described compounds of formula I and I-1 reduce L-687,414-induced hyperlocomotion. This was assessed by using a computerized Digiscan 16 Animal Activity Monitoring System (Omnitech Electronics, Columbus, Ohio) to quantify locomotor activity. Animals were kept under a 12 h light/dark cycle and experiments were performed during the light period. Each activity monitoring chamber consisted of a Plexiglas box (41×41×28 cm; W×L×H) with sawdust bedding on the floor surrounded by invisible horizontal and vertical infrared sensor beams. The test boxes were divided by a Plexiglas cross providing each mouse with 20×20 cm of moving space. Cages were connected to a Digiscan Analyzer linked to a computer that constantly collected the beam status information. Records of photocell beam interruptions for individual animals were taken every 5 min over the duration of the experimental session and the sum of the first 6 periods was used as the final parameter. Compounds were administered either p.o. 15 min before a s.c. injection of 50 mg/kg of L-687,414, or i.p. at the same time as a s.c. injection of 50 mg/kg of L-687,414. Mice were then transferred from their home cage to the recording chambers for a 15-min habituation phase allowing free exploration of the new environment. Horizontal activity was then recorded for a 30-min time period. The % inhibition of L-687,414-induced hyperlocomotion was calculated according to the equation: ((Veh+L-687,414 horizontal activity−drug+L-687,414 horizontal activity)/Veh+L-687,414 horizontal activity)×100
ID50 values, defined as doses of each compound producing 50% inhibition of L-687,414-induced hyperlocomotion, were calculated by linear regression analysis of a dose-response data using an Excel-based computer-fitting program.
As data was not presupposed to be normally distributed, groups treated with test compounds were statistically compared with the control (vehicle-treated) group using one-tailed Mann Whitney U tests. In statistics, the Mann-Whitney U test (also called the Mann-Whitney-Wilcoxon (MWW) or Wilcoxon rank-sum test) is a non-parametric statistical hypothesis test for assessing whether one of two samples of independent observations tends to have larger values than the other. It is one of the most well-known non-parametric significance tests. […] P values given in table 1 are one-tailed since only decreases in locomotion were expected and tested for (Mann, H. B., Whitney, D. R. (1947), “On a Test of Whether one of Two Random Variables is Stochastically Larger than the Other”, Annals of Mathematical Statistics, 18 (1), 50-60).

Row | Structure (SMILES) | Inhibition, ip [%] | ID50 po [mg/kg]
1 | Cc1cc(C(=O)Nc2ccc3c(c2)NC(=O)C3(C)C)ccn1 [Example 1, N-(3,3-Dimethyl-2-oxo-2,3-dihydro-1H-indol-6-yl)-2-methyl-isonicotinamide] | 81.6 | 
2 | CN1C(=O)C(C)(C)c2ccc(NC(=O)c3ccncc3)cc21 [Example 2, N-(1,3,3-Trimethyl-2-oxo-2,3-dihydro-1H-indol-6-yl)-isonicotinamide] |  | 2.06
3 | CN1C(=O)C2(CCCC2)c2ccc(NC(=O)c3ccncc3)cc21 [Example 3, N-(1′-Methyl-2′-oxospiro[cyclopentane-1,3′-indoline]-6′-yl)isonicotinamide] | 83.3 | 
4 | CN1C(=O)C(C)(C)c2ccc(NC(=O)c3cccnc3)cc21 [Example 4, N-(1,3,3-Trimethyl-2-oxoindolin-6-yl)nicotinamide] |  | 1.84
5 | Cc1cc(C(=O)Nc2ccc3c(c2)N(C)C(=O)C3(C)C)ccn1 [Example 5, 2-Methyl-N-(1,3,3-trimethyl-2-oxoindolin-6-yl)isonicotinamide] | 77.2 | 
6 | CN1C(=O)C(C)(C)c2cnc(NC(=O)c3ccncc3)cc21 [Example 6, N-(1,3,3-Trimethyl-2-oxo-2,3-dihydro-1H-pyrrolo[3,2-c]pyridin-6-yl)isonicotinamide] | 64.5 | 
7 | CCN1C(=O)C(C)(C)c2ccc(NC(=O)c3ccncc3)cc21 [Example 7, N-(1-ethyl-3,3-dimethyl-2-oxoindolin-6-yl)isonicotinamide] | 90.4 | 
8 | Cc1cc(C(=O)Nc2ccc3c(c2)N(C)C(=O)C3(C)C)nc(C)n1 [Example 8, 2,6-Dimethyl-N-(1,3,3-trimethyl-2-oxoindolin-6-yl)pyrimidine-4-carboxamide] | 70.7 | 
9 | Cc1ccncc1C(=O)Nc1ccc2c(c1)N(C)C(=O)C2(C)C [Example 9, 4-Methyl-N-(1,3,3-trimethyl-2-oxoindolin-6-yl)nicotinamide] |  | 6.6
10 | COc1ccc(C(=O)Nc2ccc3c(c2)N(C)C(=O)C3(C)C)cn1 [Example 10, 6-Methoxy-N-(1,3,3-trimethyl-2-oxoindolin-6-yl)nicotinamide] | 62.2 | 
11 | Cc1ncc(C(=O)Nc2ccc3c(c2)N(C)C(=O)C3(C)C)c(C)n1 [Example 12, 2,4-Dimethyl-N-(1,3,3-trimethyl-2-oxoindolin-6-yl)pyrimidine-5-carboxamide] | 69.2 | 
12 | CC1(C)C(=O)N(C2CC2)c2cc(NC(=O)c3ccncc3)ccc21 [Example 14, N-(1-Cyclopropyl-3,3-dimethyl-2-oxoindolin-6-yl)isonicotinamide] | 66.5 | 
13 | COc1cnccc1C(=O)Nc1ccc2c(c1)N(C)C(=O)C2(C)C [Example 15, 3-Methoxy-N-(1,3,3-trimethyl-2-oxoindolin-6-yl)isonicotinamide] | 56.3 | 
14 | Cc1cc(C(=O)Nc2ccc3c(c2)N(C2CC2)C(=O)C3(C)C)ccn1 [Example 17, N-(1-Cyclopropyl-3,3-dimethyl-2-oxoindolin-6-yl)-2-methylisonicotinamide] | 79.3 | 
15 | CC1(C)C(=O)N(C2CC2)c2cc(NC(=O)c3cccnc3)ccc21 [Example 18, N-(1-Cyclopropyl-3,3-dimethyl-2-oxoindolin-6-yl)nicotinamide] | 68.8 | 
16 | CN1C(=O)C(C)(C)c2cc(F)c(NC(=O)c3ccncc3)cc21 [Example 20, N-(5-Fluoro-1,3,3-trimethyl-2-oxoindolin-6-yl)isonicotinamide] | 87.3 | 
17 | CCN1C(=O)C(C)(C)c2ccc(NC(=O)c3cccnc3)cc21 [Example 21, N-(1-Ethyl-3,3-dimethyl-2-oxoindolin-6-yl)nicotinamide] | 76.6 | 
18 | CN1C(=O)C(C)(C)c2cc(F)c(NC(=O)c3cccnc3)cc21 [Example 24, N-(5-fluoro-1,3,3-trimethyl-2-oxoindolin-6-yl)nicotinamide] | 80.0 | 
19 | CN1C(=O)C(C)(C)c2ccc(NC(=O)c3ccncc3Cl)cc21 [Example 27, 3-Chloro-N-(1,3,3-trimethyl-2-oxoindolin-6-yl)isonicotinamide] |  | 1.95

Row | Structure (SMILES) | Inhibition, ip [%] | ID50 po [mg/kg]
20 | Cc1cc(C(=O)Nc2ccc3c(c2F)N(C)C(=O)C3(C)C)ccn1 [Example 28, N-(7-fluoro-1,3,3-trimethyl-2-oxoindolin-6-yl)-2-methylisonicotinamide] | 74.7 | 
21 | CC1(C)C(=O)N(C2CC2)c2cc(NC(=O)c3ccncc3F)ccc21 [Example 31, N-(1-Cyclopropyl-3,3-dimethyl-2-oxoindolin-6-yl)-3-fluoroisonicotinamide] |  | 1
22 | Cc1cc(C(=O)Nc2ccc3c(c2)N(C)C(=O)C3(C)C)c(F)cn1 [Example 33, 5-Fluoro-2-methyl-N-(1,3,3-trimethyl-2-oxoindolin-6-yl)isonicotinamide] | 78.6 | 
23 | Cc1cc(C(=O)Nc2cc3c(cc2Cl)C(C)(C)C(=O)N3C)ccn1 [Example 35, N-(5-Chloro-1,3,3-trimethyl-2-oxoindolin-6-yl)-2-methylisonicotinamide] | 57.3 | 
24 | CC1(C)C(=O)N(C2CC2)c2cc(NC(=O)c3ccncc3)c(F)cc21 [Example 36, N-(1-cyclopropyl-5-fluoro-3,3-dimethyl-2-oxoindolin-6-yl)isonicotinamide] | 89.0 | 
25 | CC(C)N1C(=O)C(C)(C)c2ccc(NC(=O)c3cccnc3)cc21 [Example 37, N-(1-Isopropyl-3,3-dimethyl-2-oxoindolin-6-yl)nicotinamide] | 64.0 | 
26 | CC1(C)C(=O)N(C2CC2)c2cc(NC(=O)c3cccnc3)c(F)cc21 [Example 38, N-(1-Cyclopropyl-5-fluoro-3,3-dimethyl-2-oxoindolin-6-yl)nicotinamide] | 60.8 | 
27 | CCN1C(=O)C(C)(C)c2ccc(NC(=O)c3ccnc(C)c3)cc21 [Example 39, N-(1-Ethyl-3,3-dimethyl-2-oxoindolin-6-yl)-2-methylisonicotinamide] | 58.6 | 
28 | CCN1C(=O)C(C)(C)c2ccc(NC(=O)c3ccncc3Cl)cc21 [Example 40, 3-Chloro-N-(1-ethyl-3,3-dimethyl-2-oxoindolin-6-yl)isonicotinamide] | 72.9 | 
29 | CCN1C(=O)C(C)(C)c2ccc(NC(=O)c3ccncc3F)cc21 [Example 41, N-(1-ethyl-3,3-dimethyl-2-oxoindolin-6-yl)-3-fluoroisonicotinamide] | 85.2 | 
30 | CN1C(=O)C(C)(C)c2ccc(NC(=O)c3ccc(F)cc3)cc21 [Example 43, 4-Fluoro-N-(1,3,3-trimethyl-2-oxoindolin-6-yl)benzamide] | 88.0 | 
31 | Cc1cc(C(=O)Nc2cc3c(cc2F)C(C)(C)C(=O)N3C2CC2)ccn1 [Example 46, N-(1-Cyclopropyl-5-fluoro-3,3-dimethyl-2-oxoindolin-6-yl)-2-methylisonicotinamide] | 72.7 | 
32 | CN1C(=O)C(C)(C)c2cc(F)c(NC(=O)c3ccncc3Cl)cc21 [Example 51, 3-Chloro-N-(5-fluoro-1,3,3-trimethyl-2-oxoindolin-6-yl)isonicotinamide] | 80.1 | 
33 | CC1(C)C(=O)N(CC2CC2)c2cc(NC(=O)c3ccncc3)ccc21 [Example 52, N-(1-(Cyclopropylmethyl)-3,3-dimethyl-2-oxoindolin-6-yl)isonicotinamide] | 78.8 | 
34 | CC1(C)C(=O)N(CC2CC2)c2cc(NC(=O)c3ccncc3F)ccc21 [Example 53, N-(1-(Cyclopropylmethyl)-3,3-dimethyl-2-oxoindolin-6-yl)-3-fluoroisonicotinamide] | 89.9 | 
35 | Cc1cc(C(=O)Nc2ccc3c(c2)N(C2CC2)C(=O)C3(C)C)c(F)cn1 [Example 54, N-(1-Cyclopropyl-3,3-dimethyl-2-oxoindolin-6-yl)-5-fluoro-2-methylisonicotinamide] | 55.6 | 
36 | O=C(Nc1ccc2c(c1)N(C1CC1)C(=O)C21CC1)c1ccncc1 [Example 55, N-(1′-Cyclopropyl-2′-oxospiro[cyclopropane-1,3′-indoline]-6′-yl)isonicotinamide] | 61.7 | 
37 | O=C(Nc1ccc2c(c1)N(C1CC1)C(=O)C21CC1)c1ccncc1F [Example 57, N-(1′-Cyclopropyl-2′-oxospiro[cyclopropane-1,3′-indoline]-6′-yl)-3-fluoroisonicotinamide] | 60.5 | 
38 | CC1(C)C(=O)N(C2COC2)c2cc(NC(=O)c3ccncc3F)ccc21 [Example 59] | 88.6 | 
